According to EPA's ToxValDB 9.5:
Several values for one entry are separate records, joined by “and”; a condition that tells them apart may be missing. Equal values may be shown once.

What was measured:
Canidae [1] = details: oral, M/F, Beagle
Mus musculus [2] = details: acute
Oryctolagus sp. = details: acute, New Zealand
Rattus norvegicus [3] = details: oral, Wistar; for NOAEL: gavage
Canidae [4] = details: acute; oral; Beagle
Rattus norvegicus [5] = experiment: LD0; higher = less toxic; details: acute, oral, gavage
Canidae [6] = details: oral, Dog Other
Rattus norvegicus [7] = details: for LOEL / NOEL: Hershberger, oral, gavage; for LEL: uterotrophic, injection, subcutaneous, Active
Canidae [8] = details: oral, diet, M/F, Dog Other
Rattus norvegicus [9] = details: repeat dose other; oral
Rattus norvegicus [10] = details: oral
Mus musculus [11] = details: uterotrophic; duration: 3 days; injection; subcutaneous; Active
Rattus norvegicus [12] = details: chronic; duration: 104 weeks; oral; diet; Liver: Increased weight
Mus musculus [13] = details: chronic; duration: 103 weeks; oral; gavage; M/F; B6C3F1; hepatic
Rattus norvegicus [14] = details: chronic; duration: 2 years; oral; gavage; M/F; kidney pathology
[15] = duration: 9 months, capsule, Decreased bodyweights, mortality, prostatic malfunction, foci of softening in the brainstem, & testicular atrophy
[16] = duration: 7 days, Sprague-Dawley, active + Antiandrogenic + anti-androgenic + reduced SV and caudal epididymal wt / PPS delayed
[17] = duration: 10 days, Wistar, active + Antiandrogenic + anti-androgenic + reduced SV and caudal epididymal wt / PPS delayed
[18] = duration: 10 days, Sprague-Dawley, active + Negative + Antiandrogenic + anti-androgenic + DP and LABC decreased in high dose
[19] = chronic, duration: 12 months, increase in methemoglobin + Increased liver weights
[20] = chronic, duration: 1 years, diet, Increased plasma cholesterol (males)
[21] = chronic, duration: 2 years, increased hemosiderin deposition, serum alkaline phosphatase, and liver weight (females)

N=C(N)c1ccc(N=NNc2ccc(C(=N)N)cc2)cc1 [Diminazene]
LOEL (Canidae [1]; [15]): 60 mg/kg-day | NOEL (Canidae [1]; [15]): 20 mg/kg-day

CC(O)CN(CC(C)O)c1nc(Nc2ccc(S(=O)(=O)[O-])cc2)nc(Nc2ccc(/C=C/c3ccc(Nc4nc(Nc5ccc(S(=O)(=O)[O-])cc5)nc(N(CC(C)O)CC(C)O)n4)cc3S(=O)(=O)[O-])c(S(=O)(=O)[O-])c2)n1.[Na+].[Na+].[Na+].[Na+] (stereo not given)
LC50 (Mus musculus [2]; oral, NMRI): > 1000 mg/kg | LC50 (Oryctolagus sp.; oral): > 1000 mg/kg | LD50 (Rattus norvegicus [3]; acute): > 2500 mg/kg | NOAEL (Rattus norvegicus [3]; short-term, duration: 5 days, F): 1020 mg/kg-day | NOAEL (Rattus norvegicus [3]; short-term, duration: 5 days, M): 1020 mg/kg-day | NOAEL (Rattus norvegicus [3]; subchronic, duration: 13 weeks, F): 300 mg/kg-day | NOAEL (Rattus norvegicus [3]; subchronic, duration: 13 weeks, M): 300 mg/kg-day | LC50 (Canidae [4]): > 500 mg/kg

CCC(C#N)CC#N (stereo not given) [2-Ethylbutanedinitrile]
LD0 (Rattus norvegicus [5]; Sprague-Dawley): < 500 mg/kg

CON(C)C(=O)Nc1ccc(Cl)c(Cl)c1 [Linuron]
LOAEL (Canidae [6]; chronic, duration: 2 years, diet, Blood: Hematological effects): 0.625 mg/kg-day | LOEL (Rattus norvegicus [7]; [16]): 40 mg/kg-day and 100 mg/kg-day | NOEL (Rattus norvegicus [7]; [16]): 20 mg/kg-day | NOEL (Rattus norvegicus [7]; duration: 10 days, Sprague-Dawley, inactive + Negative + anti-androgenic + reduced SV and caudal epididymal wt / PPS delayed): 20 mg/kg-day | LOEL (Rattus norvegicus [7]; [17]): 40 mg/kg-day and 100 mg/kg-day | NOEL (Rattus norvegicus [7]; [17]): 20 mg/kg-day and 10 mg/kg-day | NOEL (Rattus norvegicus [7]; duration: 10 days, Wistar, inactive + Negative + anti-androgenic + reduced SV and caudal epididymal wt / PPS delayed): 20 mg/kg-day | NOEL (Rattus norvegicus [7]; duration: 10 days, wistar, active + Antiandrogenic + anti-androgenic + reduced SV and caudal epididymal wt / PPS delayed): 20 mg/kg-day and 30 mg/kg-day and 10 mg/kg-day | LEL (Canidae [8]; chronic, duration: 2 years, abnormal blood pigment): 0.625 mg/kg-day

CCCN(CCC)c1c([N+](=O)[O-])cc(C(F)(F)F)cc1[N+](=O)[O-] [Trifluralin]
NOEL (Canidae [6]; chronic, duration: 12 months, diet, Blood: Methemoglobinemia + Liver: Increased weight): 0.75 mg/kg-day | LOEL (Rattus norvegicus [7]; [18]): 250 mg/kg-day and 450 mg/kg-day | NOEL (Rattus norvegicus [7]; [18]): 75 mg/kg-day and 150 mg/kg-day | LEL (Canidae [8]; [19]): 3.75 mg/kg-day | NOEL (Canidae [8]; [19]): 0.75 mg/kg-day

O=C1C2(Cl)C3(Cl)C4(Cl)C(Cl)(Cl)C5(Cl)C3(Cl)C1(Cl)C5(Cl)C24Cl (stereo not given) [Kepone]
LOAEL (Rattus norvegicus [9]): 0.4 mg/kg-day | NOAEL (Rattus norvegicus [9]): 0.08 mg/kg-day | NOAEL (Rattus norvegicus [10]; chronic, duration: 2 years, diet, M/F, Wistar, renal): 0.089 mg/kg-day | NOAEL (Rattus norvegicus [10]; short-term, duration: 10 days, gavage, M, Fischer 344, neurological): 1.25 mg/kg-day | NOAEL (Rattus norvegicus [10]; subchronic, duration: 90 days, diet, M, Sprague-Dawley, neurological, reproductive): 0.26 mg/kg-day | LEL (Mus musculus [11]): 1 mg/kg-day | LEL (Rattus norvegicus [7]; duration: 1 days): 10 mg/kg-day | LEL (Rattus norvegicus [7]; duration: 2 days): 0.2 mg/day | LEL (Rattus norvegicus [7]; duration: 3 days): 15 mg/kg-day and 20 mg/kg-day and 30 mg/kg-day

N#Cc1c(N)nc(NC2CC2)nc1N [Dicyclanil]
LOEL (Canidae [1]; [20]): 4.4 mg/kg-day | NOEL (Canidae [1]; [20]): 0.71 mg/kg-day

ON=C1CCCCC1 [Cyclohexanone oxime]
LD0 (Rattus norvegicus [5]; Fischer 344): > 300 mg/kg | LD50 (Mus musculus [2]; injection, Intraperitoneal): 250 mg/kg | LD50 (Oryctolagus sp.; dermal, occlusive): > 5000 mg/kg

CC(COc1ccc(C(C)(C)C)cc1)OS(=O)OCCCl (stereo not given) [Aramite]
NOAEL (Rattus norvegicus [12]): 7.8 mg/kg-day | NOAEL (Canidae [6]; chronic, duration: 52 weeks, diet, Liver: Degeneration): 10 mg/kg-day

COC(=O)Nc1nc2ccc(C(=O)c3ccc(F)cc3)cc2[nH]1 [Flubendazole]
NOEL (Canidae [1]; duration: 3 months, capsule, Atrophic change in prostate): 2.5 mg/kg-day | NOEL (Canidae [1]; subchronic, duration: 3 months, capsule, Atrophic change in prostate): 2.5 mg/kg-day

CC(C)N(C(=O)SCC(Cl)=C(Cl)Cl)C(C)C [Tri-allate]
NOAEL (Canidae [6]; chronic, duration: 24 months, diet, Liver: Effects + Spleen: Effects): 1.27 mg/kg-day | LOAEL (Canidae [8]; [21]): 4.25 mg/kg-day | NOAEL (Canidae [8]; [21]): 1.27 mg/kg-day

C#CC(C)(C)NC(=O)c1cc(Cl)cc(Cl)c1 [Propyzamide]
NOEL (Canidae [6]; chronic, duration: 2 years, diet, None Observed): 7.5 mg/kg-day | NOEL (Rattus norvegicus [7]; duration: 10 days, Sprague-Dawley, active + Negative + Antiandrogenic + anti-androgenic + two studies / first one doses were high but effects observed on AST wt and delayed …): 40 mg/kg-day | NOEL (Canidae [8]; chronic, duration: 2 years, no effects): 7.5 mg/kg-day

CC1=CC(=O)CC(C)(C)C1 [Isophorone]
LOAEL (Mus musculus [13]): 179 mg/kg-day | NOAEL (Rattus norvegicus [10]; subchronic, duration: 90 days, diet, F, other): 312 mg/kg-day | NOEL (Canidae [6]; subchronic, duration: 90 days, capsule, Kidney: Lesions): 150 mg/kg-day | NOEL (Rattus norvegicus [7]; duration: 10 days, Sprague-Dawley, inactive + Negative + Negative + neither + increase age at PPS, decrease wt of SV, decrease testosterone at 800 / NS increase in liver wt …): 200 mg/kg-day | LEL (Rattus norvegicus [14]): 250 mg/kg-day | NOEL (Canidae [8]; subchronic, duration: 90 days, no effects): 150 mg/kg-day
